Data reported in PubChem BioAssay AID1963854 (Molecular Pharmacology Branch, DTP, NCI, 2024).

System: 186277-243-T-J2-PDC complex spheroid viability
Test: Anticancer human tumor 186277-243-T-J2-PDC patient-derived colon adenocarcinoma cell line growth inhibition [POLQ]
Conditions: for IC50: curve of first compound; for viability, T/C: stronger effect = lower value
Summary of the method: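 Patient-derived tumour cells were co-cultured with HUVEC and mesenchymal stem cells as multicellular spheroids at 37 °C. They were treated with POLQ inhibitors (novobiocin, ART-558, RP6685) alone or combined with other agents. Top concentrations were at or near clinical Cmax (otherwise 10 microM; SN-38 at 1 microM), decreasing in half-log steps.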

[1] = second compound 0.0316 µM, first compound 0.0316 µM
[2] = second compound 0.0316 µM, first compound 0.1 µM
[3] = second compound 0.0316 µM, first compound 0.316 µM
[4] = second compound 0.0316 µM, first compound 1 µM
[5] = second compound 0.0316 µM, first compound 3.16 µM
[6] = second compound 0.0316 µM, first compound 10 µM
[7] = second compound 0.1 µM, first compound 0.0316 µM
[8] = second compound 0.1 µM, first compound 0.1 µM
[9] = second compound 0.1 µM, first compound 0.316 µM
[10] = second compound 0.1 µM, first compound 1 µM
[11] = second compound 0.1 µM, first compound 3.16 µM
[12] = second compound 0.1 µM, first compound 10 µM
[13] = second compound 0.316 µM, first compound 0.0316 µM
[14] = second compound 0.316 µM, first compound 0.1 µM
[15] = second compound 0.316 µM, first compound 0.316 µM
[16] = second compound 0.316 µM, first compound 1 µM
[17] = second compound 0.316 µM, first compound 3.16 µM
[18] = second compound 0.316 µM, first compound 10 µM
[19] = second compound 1 µM, first compound 0.0316 µM
[20] = second compound 1 µM, first compound 0.1 µM
[21] = second compound 1 µM, first compound 0.316 µM
[22] = second compound 1 µM, first compound 1 µM
[23] = second compound 1 µM, first compound 3.16 µM
[24] = second compound 1 µM, first compound 10 µM
[25] = second compound 3.16 µM, first compound 0.0316 µM
[26] = second compound 3.16 µM, first compound 0.1 µM
[27] = second compound 3.16 µM, first compound 0.316 µM
[28] = second compound 3.16 µM, first compound 1 µM
[29] = second compound 3.16 µM, first compound 3.16 µM
[30] = second compound 3.16 µM, first compound 10 µM
[31] = second compound 10 µM, first compound 0.0316 µM
[32] = second compound 10 µM, first compound 0.1 µM
[33] = second compound 10 µM, first compound 0.316 µM
[34] = second compound 10 µM, first compound 1 µM
[35] = second compound 10 µM, first compound 3.16 µM
[36] = second compound 10 µM, first compound 10 µM
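Also: spheroids exposed to compounds for seven days.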
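For viability, T/C in this document: 100% = DMSO vehicle control viability.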

COc1cc2cc(C(=O)CCC(=O)O)sc2cc1OC + Nc1ccc(C#CCN(C(=O)Cc2ncc(C(F)(F)F)cc2C(F)(F)F)c2ccc(F)cc2)nn1
IC50 (second compound 0.0316 µM): > 10 µM
IC50 (second compound 0.1 µM): > 10 µM
IC50 (second compound 0.316 µM): > 10 µM
IC50 (second compound 1 µM): > 10 µM
IC50 (second compound 3.16 µM): > 10 µM
IC50 (second compound 10 µM): > 10 µM
viability, T/C [1]: 83.5%
viability, T/C [2]: 87.3%
viability, T/C [3]: 92.9%
viability, T/C [4]: 88.7%
viability, T/C [5]: 93.4%
viability, T/C [6]: 85.6%
viability, T/C [7]: 96.3%
viability, T/C [8]: 98.5%
viability, T/C [9]: 91%
viability, T/C [10]: 100%
viability, T/C [11]: 90.3%
viability, T/C [12]: 103%
viability, T/C [13]: 97.5%
viability, T/C [14]: 87.5%
viability, T/C [15]: 87%
viability, T/C [16]: 91.9%
viability, T/C [17]: 89.9%
viability, T/C [18]: 97.8%
viability, T/C [19]: 96.1%
viability, T/C [20]: 96.5%
viability, T/C [21]: 92.2%
viability, T/C [22]: 94.3%
viability, T/C [23]: 94.8%
viability, T/C [24]: 83.2%
viability, T/C [25]: 78.8%
viability, T/C [26]: 105%
viability, T/C [27]: 90%
viability, T/C [28]: 90.7%
viability, T/C [29]: 98.9%
viability, T/C [30]: 93.5%
viability, T/C [31]: 106%
viability, T/C [32]: 94.8%
viability, T/C [33]: 81.5%
viability, T/C [34]: 90%
viability, T/C [35]: 90.5%
viability, T/C [36]: 96.5%

C=CC(=O)N1CCN(c2nc(=O)n(-c3c(C)ccnc3C(C)C)c3nc(-c4c(O)cccc4F)c(F)cc23)C(C)C1 (stereo unspecified) + Cc1cccc(N(C)C(=O)C2C(O)CCN2c2nc(C)cc(C(F)(F)F)c2C#N)c1
IC50 (second compound 0.0316 µM): > 10 µM
IC50 (second compound 0.1 µM): > 10 µM
IC50 (second compound 0.316 µM): > 10 µM
IC50 (second compound 1 µM): > 10 µM
IC50 (second compound 3.16 µM): > 10 µM
IC50 (second compound 10 µM): > 10 µM
viability, T/C [1]: 92.8%
viability, T/C [2]: 101%
viability, T/C [3]: 82.2%
viability, T/C [4]: 90.9%
viability, T/C [5]: 99.5%
viability, T/C [6]: 103%
viability, T/C [7]: 106%
viability, T/C [8]: 98.6%
viability, T/C [9]: 103%
viability, T/C [10]: 84.7%
viability, T/C [11]: 107%
viability, T/C [12]: 104%
viability, T/C [13]: 90.4%
viability, T/C [14]: 91.5%
viability, T/C [15]: 102%
viability, T/C [16]: 99.5%
viability, T/C [17]: 112%
viability, T/C [18]: 102%
viability, T/C [19]: 99.8%
viability, T/C [20]: 108%
viability, T/C [21]: 98.6%
viability, T/C [22]: 96.2%
viability, T/C [23]: 108%
viability, T/C [24]: 101%
viability, T/C [25]: 106%
viability, T/C [26]: 99%
viability, T/C [27]: 84%
viability, T/C [28]: 106%
viability, T/C [29]: 111%
viability, T/C [30]: 103%
viability, T/C [31]: 97.9%
viability, T/C [32]: 106%
viability, T/C [33]: 108%
viability, T/C [34]: 102%
viability, T/C [35]: 97.3%
viability, T/C [36]: 95.9%

C=CC(=O)N1CCN(c2nc(=O)n(-c3c(C)ccnc3C(C)C)c3nc(-c4c(O)cccc4F)c(F)cc23)C(C)C1 (stereo unspecified) + Nc1ccc(C#CCN(C(=O)Cc2ncc(C(F)(F)F)cc2C(F)(F)F)c2ccc(F)cc2)nn1
IC50 (second compound 0.0316 µM): > 10 µM
IC50 (second compound 0.1 µM): > 10 µM
IC50 (second compound 0.316 µM): > 10 µM
IC50 (second compound 1 µM): > 10 µM
IC50 (second compound 3.16 µM): > 10 µM
IC50 (second compound 10 µM): > 10 µM
viability, T/C [1]: 98.7%
viability, T/C [2]: 84.2%
viability, T/C [3]: 96.2%
viability, T/C [4]: 83.5%
viability, T/C [5]: 115%
viability, T/C [6]: 101%
viability, T/C [7]: 93.1%
viability, T/C [8]: 94.5%
viability, T/C [9]: 102%
viability, T/C [10]: 103%
viability, T/C [11]: 95.1%
viability, T/C [12]: 112%
viability, T/C [13]: 91%
viability, T/C [14]: 106%
viability, T/C [15]: 100%
viability, T/C [16]: 96.1%
viability, T/C [17]: 92.6%
viability, T/C [18]: 100%
viability, T/C [19]: 91.8%
viability, T/C [20]: 101%
viability, T/C [21]: 90%
viability, T/C [22]: 87.1%
viability, T/C [23]: 96%
viability, T/C [24]: 104%
viability, T/C [25]: 97.6%
viability, T/C [26]: 92.3%
viability, T/C [27]: 97.7%
viability, T/C [28]: 102%
viability, T/C [29]: 99.3%
viability, T/C [30]: 101%
viability, T/C [31]: 112%
viability, T/C [32]: 99.9%
viability, T/C [33]: 107%
viability, T/C [34]: 101%
viability, T/C [35]: 95.9%
viability, T/C [36]: 105%
